{"source": "patent US20040259909A1", "about": "“Treatment of fibromyalgia syndrome” (priority 2001, published 2004)", "key": {"[1]": {"experiment": "Animal models of memory and cognition", "settings": "in vivo", "text": "In a first embodiment of the invention a suitable α7 agonist is spiro[1-azabicyclo[2.2.2]octane-3,5′-oxazolidine-2′-one (Compound 1, Table 1). […] This compound is disclosed in U.S. Pat. No. 5,902,814 the disclosure of which is incorporated herein in its entirety by reference. This compound is active in animal models of memory and cognition."}, "nAChR α7": {"biological_target": "nAChR α7 (Rattus norvegicus, UniProt Q05941)", "sequence (Q05941 23-502)": "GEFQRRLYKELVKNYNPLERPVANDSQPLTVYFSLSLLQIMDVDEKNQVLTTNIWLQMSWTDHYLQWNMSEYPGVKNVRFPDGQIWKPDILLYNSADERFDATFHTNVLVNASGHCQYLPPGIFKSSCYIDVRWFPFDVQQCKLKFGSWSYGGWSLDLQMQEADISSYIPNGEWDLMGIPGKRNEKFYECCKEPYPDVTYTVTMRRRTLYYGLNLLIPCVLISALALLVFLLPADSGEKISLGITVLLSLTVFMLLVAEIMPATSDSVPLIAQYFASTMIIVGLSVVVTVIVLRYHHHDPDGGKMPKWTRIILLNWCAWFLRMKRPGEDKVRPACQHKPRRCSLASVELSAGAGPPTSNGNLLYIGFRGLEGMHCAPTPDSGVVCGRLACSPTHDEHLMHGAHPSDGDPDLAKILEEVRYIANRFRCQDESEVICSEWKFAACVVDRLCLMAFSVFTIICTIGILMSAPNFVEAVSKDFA", "experiment": "Oocyte functional assay, two-electrode voltage clamp (Test C, FIG. 1)", "settings": "in words; currents in oocytes expressing nAChR α7 (FIG. 1)", "description": "Xenopus oocytes Xenopus laevis frogs (Xenopus I, Kalamazoo, Mich.) were anesthetized using 0.15% tricaine. Oocytes were removed to OR2 solution: (in mM) 82 NaCl, 2.5 KCl, 5 HEPES, 1.5 NaH2PO4, 1 MgCl2, 0.1 EDTA, pH 7.4. The oocytes were defolliculated by incubation in 25 mL OR2 containing 0.2% collagenase 1A (SIGMA) two times for 60 min on a platform vibrating at 1 Hz and stored in Leibovitz's L-15 medium. Oocytes were injected the following day. Leibovitz's L-15 medium contained 50 μg/mL gentomycin, 10 units/mL penicillin, and 10 μg/mL streptomycin.\nPreparation and injection of cRNA Rat nAChR α7 was cloned in-house (Luhowskyj). Non-polyadenylated cRNA was prepared from cDNA using mMessage mMachine SP6 (Ambion) according to the manufacturer's instructions.\nRecording The external recording solution consisted of (in mM) 90 NaCl, 1 KCl, 1 MgCl2, 1 BaCl2, 5 HEPES, pH 7.4. […] Oocytes were impaled with two electrodes of 1-2 MΩ tip resistance when filled with 3M KCl. Recordings were begun when membrane potential became stable at potentials negative to −20 mV. Membrane potential was clamped at −80 mV unless otherwise noted. ACh, (−) was purchased from SIGMA.\nCalculation of current amplitude and curve fitting Current amplitude was measured from baseline to peak. EC50's, maximal effect, and Hill slopes were estimated by fitting the data to the logistic equation using GraphPad Prism (GraphPad Software, Inc. San Diego, Calif.)\nData are fit by the logistic equation."}, "α7 nAChR subtype": {"biological_target": "T1, α7 nAChR subtype (Rattus norvegicus, UniProt Q05941)", "T1 construct": "Rat hippocampi were homogenized in 20 volumes of cold homogenisation buffer; from tissue; host or cells: rat hippocampus membranes", "T1 sequence (Q05941 23-502)": "as above", "experiment": "125I-α-Bungarotoxin (BTX) binding to rat hippocampal membranes (Test A)", "description": "Test A—Assay for Affinity at α7 nAChR Subtype\nRat hippocampi were homogenized in 20 volumes of cold homogenisation buffer (HB): (in mM): tris(hydroxymethyl)aminomethane 50; MgCl2 1; NaCl 120; KCl 5: pH 7.4). The homogenate was centrifuged for 5 min at 1000 g, the supernatant was saved and the pellet re-extracted. The pooled supernatants were centrifuged for 20 min at 12000 g, washed, and re-suspended in HB.\n(§1) Ki values were estimated using the general Cheng-Prusoff equation (A):\n(§2) where a value of n=1 was used whenever nH<1.5 and a value of n−2 was used when nH≧1.5. Samples were assayed in triplicate and were typically ±5%. Ki values were determined using six or more drug concentrations."}, "5-HT3": {"biological_target": "T2, 5-HT3 (Rattus norvegicus, UniProt P35563)", "T2 construct": "using rat small-bowel muscularis membranes suspended in 50 mM Tris; from tissue; host or cells: rat small-bowel muscularis membranes", "T2 sequence (P35563 24-483)": "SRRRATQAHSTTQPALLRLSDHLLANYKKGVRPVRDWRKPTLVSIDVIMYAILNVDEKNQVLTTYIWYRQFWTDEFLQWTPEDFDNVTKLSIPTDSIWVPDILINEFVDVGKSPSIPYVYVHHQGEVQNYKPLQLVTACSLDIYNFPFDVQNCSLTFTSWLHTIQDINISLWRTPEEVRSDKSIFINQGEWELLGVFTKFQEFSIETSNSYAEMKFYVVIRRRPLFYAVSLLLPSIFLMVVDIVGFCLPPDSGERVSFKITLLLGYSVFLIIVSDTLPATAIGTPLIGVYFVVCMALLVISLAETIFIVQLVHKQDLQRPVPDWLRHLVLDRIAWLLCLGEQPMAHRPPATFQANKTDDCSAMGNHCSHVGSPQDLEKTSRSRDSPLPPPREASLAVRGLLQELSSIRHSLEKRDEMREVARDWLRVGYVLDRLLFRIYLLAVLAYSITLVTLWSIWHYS", "experiment": "[3H]zacopride binding to rat small-bowel muscularis membranes (Test B)", "settings": "0.5 nM [3H]zacopride, read-out: Binding Affinity (Ki/nM) 5HT3", "description": "Test B—Assay for Affinity to the 5-HT3 nAChR Subtype\n[^3]zacoipride binding. […] Incubation was continued for one hour.\nBinding Data Analysis for Tests A and B\nas §1, §2"}, "[2]": {"settings": "complex spatial memory task, animal models; cited from earlier work"}, "[3]": {"settings": "fibromyalgia patients treated with tropisetron; cited from earlier work"}}, "note": "Like-named read-outs stand apart in the source and are kept apart here.", "data": [{"smiles": "O=C1NC[C@]2(CN3CCC2CC3)O1", "note": "[Compound 1, spiro[1-azabicyclo[2.2.2]octane-3,5′-oxazolidine-2′-one]", "values": [{"measurement": "activity in animal models of memory and cognition", "setting": "[1]", "value": "active"}, {"measurement": "activity at the α7 receptor", "setting": "nAChR α7", "value": "selective α7 agonist"}]}, {"smiles": "c1cnc2c(c1)C[C@@]1(CN3CCC1CC3)O2", "note": "[Compound 2, spiro[1-azabicyclo[2.2.2]octane-3,2′-(3′H)-furo[2,3-b]pyridine]]", "values": [{"measurement": "Ki", "setting": "α7 nAChR subtype; [125I]α-BTX 5 nM, rat hippocampal membranes, read-out: Binding Affinity (Ki/nM) α7", "value": 14, "unit": "nM"}]}, {"smiles": "O=C(NC1CN2CCC1CC2)c1cc(-c2ccccc2)cs1", "note": "(stereo not shown) [Compound 3, N-(1-azabicyclo[2.2.2]oct-3-yl)(4-phenylthiophene-2-carboxamide)]", "values": [{"measurement": "Ki", "setting": "5-HT3", "value": 20000, "unit": "nM"}, {"measurement": "Ki", "setting": "α7 nAChR subtype", "value": 1.6, "unit": "nM"}]}, {"smiles": "Cc1nccn1CC1CCc2c(c3ccccc3n2C)C1=O", "note": "(stereo not shown) [ondansetron]", "values": [{"measurement": "activity at the α7 receptor", "setting": "nAChR α7", "value": "lacked activity"}, {"measurement": "antagonism of spatial navigation impairment", "setting": "[2]", "value": "not"}]}, {"smiles": "CN1[C@@H]2CC[C@H]1C[C@@H](OC(=O)c1c[nH]c3ccccc13)C2", "note": "[tropisetron]", "values": [{"measurement": "reduction in fibromyalgia symptoms", "setting": "[3]", "value": "statistically significant reduction in their symptoms"}, {"measurement": "activity at the α7 receptor", "setting": "nAChR α7", "value": "potent and selective partial agonist"}, {"measurement": "antagonism of spatial navigation impairment", "setting": "[2]", "value": "antagonize spatial navigation impairment"}]}]}
